Data published in patent US20230107216A1, “PANTETHEINE DERIVATIVES AND USES THEREOF” (Comet Therapeutics, Inc., priority 2018, published 2023).
Read-outs that look alike come from different tables or passages of the source.

Key:
[1] = system: Propionic Acidemia (PA) primary fibroblasts GM00371; experiment: Mitochondrial respiration, XFe96 Extracellular Flux Analyzer (OCR/ECAR), PA fibroblasts GM00371; assay type: cell-based; settings: Homo sapiens, Fibroblast, 50 μM, read-out: Increase in Maximal Respiratory Capacity AUC
[2] = system: Methylmalonic Acidemia (MMA) primary fibroblasts GM01673; experiment: Mitochondrial respiration, XFe96 Extracellular Flux Analyzer (OCR/ECAR), MMA fibroblasts GM01673; assay type: cell-based; settings: Homo sapiens, Fibroblast
Description: The effect of the compounds of the present disclosure on mitochondrial respiration was measured with a XFe96 Extracellular Flux Analyzer (Seahorse Bioscience, Agilent Technologies) and Oxygen consumption Rate (OCR) and Extracellular acidification rate (ECAR) determined.
Cell culture and treatments. Primary adherent fibroblasts were cultured in minimum essential medium (MEM) (Gibco, 25030081) supplemented with 2 mM L-Glutamine (Gibco, 25030081), 15% fetal bovine serum (FBS) (Gibco, 26400044) and 1% penicillin/streptomycin (Gibco, 5140122) at 37° C. and 5% CO2. Cells were collected for either passaging or experiment at ˜70-80% confluence. Cells were obtained by trypsinization and seeded at 20000 cells/well in cell culture microplates (Seahorse Bioscience, 101085-004) and allowed to adhere for 16 hours in culture media.
By profiling different primary cells and/or optimizing their culture media or environmental components one can select cell lines and/or conditions that are appropriate for the biological or disease model. In the present example, 24 hours prior to OCR and ECAR profiling, media was changed to Dulbecco's Modified Eagle Medium (DMEM, Agilent Seahorse 103575-100) with the appropriate supplements for the different primary cells (10 mM glucose, 2 mM L-glutamine, 1 mM pyruvate, 10% FBS; 1 mM glucose, 2 mM L-glutamine, 1 mM pyruvate, 10% FBS; 10 mM glucose, 10% FBS; 5 mM glucose 10% FBS; 1 mM glucose 10% FBS). Cells used in this example were: Propionic Acidemia (PA) (GM00371, GM03590 Coriell Institute for Medical Research, Tsi 6337, Tsi 4626, Tsi 3618 Trans-Hit Bio), Methylmalonic Acidemia (MMA) (GM01673, Coriell Institute for Medical Research, Tsi 5224 Trans-Hit Bio), Branched chain ketoacid dehydrogenase kinase (BCKDK) (GM00612, GM00649 Coriell Institute for Medical Research), Subnormal activation of pyruvate dehydrogenase complex (PDH) (GM01503 Coriell Institute for Medical Research), Very long-chain acyl-CoA dehydrogenase (VLCAD) (GM17475), Leigh Syndrome (LS) (GM03672, GM13411 Coriell Institute for Medical Research), Pyruvate Carboxylase Deficiency (PC) (GM00444 Coriell Institute for Medical Research), Glutaric Acidemia-I (GA) (GM10653), Friedreich's Ataxia (FXN) (GM04078 Coriell Institute for Medical Research, Huntington's disease (HD) (GM21756 Coriell Institute for Medical Research), Ornithine Transcarbamylase Deficiency (OTC) (GM12756 Coriell Institute for Medical Research), Kearns-Sayre Syndrome (KSS) (GM06225 Coriell Institute for Medical Research).
One hour before the assay, the cells were washed with freshly prepared unbuffered serum free-Seahorse XF Assay medium (Seahorse Bioscience, North America, USA, 103575-100) with the same supplements as for the previous 24 hour incubation.
After baseline measurements of OCR, cells were challenged with compounds of the present disclosure at different concentrations (10 to 50 μM) or vehicle (DMSO, 0.1%) and a post-compound baseline was recorded. OCR was measured after sequentially adding to each well 1 μg/ml oligomycin (inhibitor of ATP synthase Sigma-Aldrich, 753531), then maximal OCR was determined with carbonyl cyanide 4-(trifluoromethoxy) phenylhydrazone (FCCP, Sigma-Aldrich, C2920), (uncoupler of oxidative phosphorylation) and 0.5 μM of rotenone (Sigma-Aldrich, R8875) plus antimycin A (Sigma-Aldrich, A8674) (inhibitors of mitochondrial complex I and III) for determination of rotenone-antimycin insensitive respiration together with Hoechst for nuclear staining in situ when normalized to cell counts. After the analysis and nuclear staining, the XFp microplate was transferred to the Cytation 5, and the nuclear images were captured, the individual nuclei were identified and counted by BioTek Gen5 software. Data were expressed as pmol of O2 per minute and normalized by nuclear staining and baselined to pre-compound addition.
Assay conditions were as stated below.
Assay specifics on assay conditions are indicated below when readouts were normalized to cell counts. […]

[3] = system: primary fibroblasts (healthy controls and PA, MMA, BCKDK, PDH, VLCAD, LS, PC, GA, VLCFA, KSS, FXN, HD); experiment: Measurement of ROS (H2DCFDA) in primary fibroblasts; assay type: cell-based, human; settings: Homo sapiens, Fibroblast, PC GM00444, procedure Example 812, Assay Condition C
Outline: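 Patient and healthy-control primary fibroblasts switched to supplemented DMEM 24 h before assay, then treated with compound (10 μM) plus H2DCFDA (22 μM) for 2 h (PA, MMA lines) or 24 h (other lines). Kinetic fluorescence at 492/527 nm over 60 min; only live cells analysed.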

HepG2 cells = experiment: Glucose uptake (Glucose Uptake-Glo); assay type: cell-based; settings: Homo sapiens, 50 uM, read-out: % increase in Glucose Uptake
[4] = system: Venular Endothelial cells (HUVEC) (4H system); experiment: BioMAP 4H system (IL-4 and histamine); assay type: cell-based, human; settings: Homo sapiens, HUVEC, 24 h; 1 uM; procedure of Example 826; read-out: % decrease in E-Selectin
[5] = system: Peripheral blood mononuclear cells co-cultured with venular endothelial cells (HUVEC) (LPS system); experiment: BioMAP LPS system; assay type: cell-based, human; settings: Homo sapiens, HUVEC, 24 h, procedure of Example 827
[6] = system: Bronchial epithelial cells co-cultured with dermal fibroblast (BF4T system); experiment: BioMAP BF4T system (TNFα and IL-4); assay type: cell-based, human; settings: Homo sapiens, 24 h; 10 uM; procedure of Example 830; read-out: % increase in VCAM-1
[7] = system: Dermal fibroblasts (HDF3CGF system); experiment: BioMAP HDF3CGF system (IL-1β, TNFα, IFNγ, EGF, bFGF, PDGF-BB); assay type: cell-based, human; settings: 10 uM
[8] = system: Bronchial epithelial cells (BE3C system); experiment: BioMAP BE3C system (IL-1β, TNFα, IFNγ); assay type: cell-based, human; settings: Homo sapiens, Epithelial cell, 24 h; 10 uM; procedure of Example 831; read-out: % decrease in MMP-1
[9] = system: Peripheral blood mononuclear cells co-cultured with B-cells (BT system)
[10] = system: primary culture of rat embryo mesencephalic cells (microglia, astrocytes and neurons) exposed to LPS; experiment: Neuroprotective effect on damage induced by LPS on culture of mesencephalic neurons (NO, TNF-α, IL-1β, TH positive neurons); assay type: cell-based; settings: 50 uM, after 5 days of LPS exposure; for inhibition at 50 µM: Rattus norvegicus, Neuron, 120 h, read-out: % reversion of TH positive neurons
Description: Drug preparation. […] The stock solutions will be prepared 1000× the concentration in 100% DMSO. The final concentration of the vehicle (DMSO) is set at 0.1%.
Test animals. Pregnant Wistar rats (Janvier; France) are used for the study. They are group-housed and maintained in a room with controlled temperature (21-22° C.) and a reversed light-dark cycle (12h/12h; lights on: 17:30-05:30; lights off: 05:30-17:30) with food and water available ad libitum.
The protocol is performed in 3 independent cultures. For each culture, each condition is performed in sextuplicate.
Female rat of 15 days gestation is killed by cervical dislocation. Fetuses are removed from the uterus and their brains are harvested and placed in ice-cold medium (Leibovitz's L15 medium, Gibco). Only ventral mesencephalic flexure is used for the cell preparations. The midbrain is dissociated by trypsinization. The reaction is stopped, and the suspension is triturated and centrifuged. The pellet of dissociated cells is resuspended in culture medium consisted of DMEM-F12 (Gibco), containing 10% FBS (ATCC), 10% Horse serum (Gibco) and 2 mM L-glutamine (Gibco). Viable cells are counted and seeded on 96-well plates, precoated with poly-L-lysine. Cells are maintained in a humidified incubator at 37° C. in 5% CO2-95% air atmosphere. Half of the medium is changed on day 2 and day 5.
Treatment. On day 7, culture media are removed and replaced by new medium consisting of DMEM-F12 (Gibco) supplemented with 2% FBS (ATCC), 2% Horse serum (Gibco) and 2 mM L-glutamine (Gibco) and containing vehicle or test substances. After 1-hour exposure, LPS at 10 ng/ml is added and exposure further continued for 24 hours or 5 days period.
Inflammatory response measurement and neuronal death evaluation. NO production is measured in the media 24h and 5 days after LPS exposure using the Griess reagent kit (Molecular Probes). The Griess reagent Assay is a colorimetric reaction assay which measures the conversion of a sulfanilic salt into an azo dye product by nitrite. Visible wavelength absorbance data is collected using a 96-well plate reader at 570 nm (Multiskan EX, Thermo Fisher, France). IL-1β and TNF-α release are measured in the media 24h after LPS exposure using the ELISA development kit (PeproTech). The ELISA plate, previously coated with anti-IL-1β or anti-TNF-αantibody at 1 μg/ml, is incubated 1h with PBS containing 1% of BSA (bovine serum albumin). After washing four times with PBS containing 0.05% of Tween-20, the plate is successively incubated 2h with supernatant, 2h with biotinylated antibody at 0.5 μg/ml in PBS containing 0.1% of BSA and 0.05% of Tween-20, 45 min with Avidin-HRP conjugated at 1/2000 and 30 min with color ABTS substrate (Sigma). Visible wavelength absorbance data is collected using a 96-well plate reader at 405 nm with wavelength correction set at 650 nm (Multiskan EX, Thermo Fisher, France).
Immunodetection of tyrosine hydroxylase positive neurons. On day 12 (5 days after LPS exposure), cultures are fixed 30 min at 4° C. with paraformaldehyde in PBS (4%, Sigma). Then, cells are successively permeabilized with 0.1% Triton X100 for 30 min, saturated with PBS containing 3% of BSA (bovine serum albumin) and are incubated 2h with anti-tyrosine hydroxylase antibody (Sigma, 1:10000; clone TH-2) at 1/10 000 in PBS containing 0.5% of BSA. Cells are washed three times with PBS containing 0.5% of BSA, and they are incubated 1h with goat anti mouse antibody coupled with AF488 (Invitrogen A11001) diluted at 1/1000 in PBS containing 0.5% of BSA. Finally, nuclei are stained with DAPI at 1/1000 in PBS containing 0.5% of BSA. After rinsing with PBS, the plate is visualized and examined with Cell Insight HCS (Thermo Scientific) to determine the number of tyrosine hydroxylase positive cells per well.
Statistical Analysis. The drug-induced effect on NO and cytokines is calculated by setting the response of the LPS-stimulated control as 100%. […]

[11] = system: Peripheral blood mononuclear cells co-cultured with B-cells (BT system); experiment: cells; settings: Homo sapiens, 72 h, read-out: % increase in sIL-6
[12] = assay condition A (10 mM glucose, 2 mM L-glutamine, 1 mM pyruvate, 10% FBS), read-out: Increase in Maximal Respiratory Capacity AUC

SMILES: COC(=O)CC(SCCNC(=O)CCNC(=O)[C@H](O)C(C)(C)COC(=O)CN)C(=O)OC (stereo partly shown) [Compound 172]
- activation at 50 µM ([1]; assay condition A (10 mM glucose, 2 mM L-glutamine, 1 mM pyruvate, 10% FBS)): ≥ 10%
- activation at 10 µM [2, 12]: ≥ 10%
- activation at 10 µM ([2]; assay condition D (1 mM glucose, 10% FBS), read-out: Increase in Maximal Respiratory Capacity AUC): ≥ 10%

SMILES: CC(=O)N[C@@H](CC(=O)CC(=O)SCCNC(=O)CCNC(=O)[C@H](O)C(C)(C)CO)C(=O)O [Compound 447]
- activation at 50 µM [2, 12]: ≥ 10%

SMILES: CC(C)(CO)[C@@H](O)C(=O)NCCC(=O)NCCSC(=O)CC[C@H](N)C(=O)O [Compound 385, (S)-2-amino-5-((2-(3-((R)-2,4-dihydroxy-3,3-dimethylbutanamido)propanamido)ethyl)thio)-5-oxopentanoic acid]
- activation at 50 µM ([1]; assay condition D (1 mM glucose, 10% FBS)): ≥ 10%
- activation at 10 µM ([2]; assay condition A (10 mM glucose, 2 mM L-glutamine, 1 mM pyruvate, 10% FBS), read-out: Increase in Spare Capacity AUC): ≥ 10%
- inhibition at 10 µM ([3]; read-out: Decreased ROS by at least 10%): ≥ 10%
- inhibition at 10 µM ([3]; read-out: Decreased ROS by at least 30%): ≥ 30%

SMILES: CC(=O)CC(=O)SCCNC(=O)CCNC(=O)[C@H](O)C(C)(C)COC(=O)O[C@H](CC(=O)[O-])C[N+](C)(C)C [Compound 185, (3R,9R)-9-hydroxy-8,8-dimethyl-5,10,14,19,21-pentaoxo-3-((trimethylammonio)methyl)-4,6-dioxa-18-thia-11,15-diazadocosanoate]
- activation at 50 µM (HepG2 cells): ≥ 30%
- inhibition at 1 µM [4]: ≥ 10%
- inhibition at 1 µM ([5]; 1 uM, read-out: % decrease in sPGE2): ≥ 10%
- inhibition at 10 µM ([5]; 10 uM, read-out: % decrease in IL-1α): ≥ 10%
- activation at 10 µM ([5]; 10 uM, read-out: % increase in sTNFα): ≥ 10%
- activation at 10 µM [6]: ≥ 10%
- % increase in SRB [7]: ≥10%
- activation at 10 µM ([7]; Homo sapiens, Fibroblast, 72 h, read-out: % increase in 72 Hour Proliferation): ≥ 10%
- activation at 50 µM ([1]; assay condition C (10 mM glucose, 10% FBS)): ≥ 10%
- inhibition at 10 µM [8]: ≥ 10%
- % increase in B-cell Proliferation ([9]; 1 uM, procedure of Example 829): ≥10%
- % increase in PBMC cytotoxicity ([9]; human, 72 h, 1 µM): ≥10%
- % decrease in NO release relative to LPS alone [10]: ≥20%
- inhibition at 50 µM ([10]; list at threshold 15%): ≥ 15%
- inhibition at 50 µM ([10]; list at threshold 50%): ≥ 50%
- activation at 1 µM [11]: ≥ 10%

SMILES: CC(C)(CO)[C@@H](O)C(=O)NCCC(=O)NCCSC(=O)CC(=O)N[C@@H](CCCCN)C(=O)O [Compound 485]
- activation at 50 µM [2, 12]: ≥ 10%
